Assay results reported in patent US6569878B1, “Substituted 4-amino-thiazol-2-yl compounds as cyclin-dependent kinase inhibitors” (Agouron Pharmaceuticals Inc., priority 1997, dated 2003).
Where a name gives a salt, the structure may show the parent alone.

Columns and labels:
[1] = system: Saos-2; test: Inhibition of cell growth, MTT assay, Saos-2; type: cell-based; details: Homo sapiens; Saos-2, MTT assay
Procedure, shortened: (§1)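 Cells rested 4 h after plating, then exposed to graded compound concentrations in 0.5% (v/v) DMSO for four to six days (cell-type dependent) at 37° C, 5% CO2. Viability was read by MTT (0.2 mg/mL final, 4 h at 37° C), with DMSO-solubilized formazan measured at 540 nm.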

[2] = system: phosphorylation of the retinoblastoma protein (pRb) in HCT-116 cells; test: pRb immunoblotting (anti-Rb antibody); type: cell-based, human; details: five micromolar of each compound for 12 hours, western blot
Description: (§2) The ability of compounds to inhibit phosphorylation of the retinoblastoma protein (pRb) was assessed by western blot analysis. An anti-Rb antibody was used to measure the conversion of hyper-phosphorylated pRb to hypo-phosphorylated pRb.
(§3) Human colon tumor cells (HCT-116 cells; 5×10^6) were plated on […] dishes and allowed to grow overnight. Five micromolar of each compound was added for 12 hours. The cells were then collected and centrifuged. The cell pellets were lysed by the addition of 100 μL lysis buffer (50 mM HEPES (pH 7.0), 250 mM NaCl, 5 mM ethylenediaminetetraacetic acid, 0.1% Nonidet P-40, 1 mM dithiothreitol, 2 mM sodium pyrophosphate, 1 mM sodium orthovanadate, 1 μg/ml aprotonin, 1 μg/ml leupeptin, 50 μg/ml phenylmethylsulfonyl fluoride). Forty micrograms of protein were separated by sodium dodecyl sulfate-polyacrylamide gel electrophoresis (SDS-PAGE) on a 6% gel. The proteins were transferred to nitrocellulose and blocked with 5% blocking buffer in Tris-buffered saline overnight. The anti-Rb antibody (Pharmingen), the anti-phospho-Rb (Ser 780) antibody (MBL), and secondary antibody were incubated for 1 hour at room temperature followed by three wash steps in 0.01% Tween-20 in Tris-buffered saline. The Rb protein was detected using chemiluminescence according to the manufacturer (Amersham).

[3] = system: MDA-MB-468; test: Inhibition of cell growth, MTT assay, MDA-MB-468; type: cell-based; details: Homo sapiens; MDA-MB-468, MTT assay
Description: (§4) The water-insoluble purple formazan product was then detected spectrophotometrically. […] Plates were incubated for four hours before addition of inhibitor compounds. Different concentrations of inhibitor compounds were added in 0.5% (v/v) dimethylsulfoxide (15 μL/well), and cells were incubated at 37° C. (5% CO2) for four to six days (depending on cell type). At the end of the incubation, MTT was added to a final concentration of 0.2 mg/mL, and cells were incubated for 4 hours more at 37° C. After centrifugation of the plates and removal of medium, the absorbance of the formazan (solubilized in dimethylsulfoxide) was measured at 540 nm.

[4] = system: MCF-7; test: Inhibition of cell growth, MTT assay, MCF-7; type: cell-based; details: MCF-7, MTT assay; for IC50 / IC90: Homo sapiens, MCF7; for % inhibition of growth in parentheses after >25: concentration not given
Description: as §4

[5] = target: T1, human CDK1 (cdc2) and cyclin B (Homo sapiens, UniProt P06493); test: Inhibition of CDK1(cdc2)/cyclin B histone H1 kinase activity; type: biochemical; details: read-out: Ki CDK 1/B
T1 construct: purchased New England Biolabs (Beverly Mass.)
T1 sequence (P06493 whole entry): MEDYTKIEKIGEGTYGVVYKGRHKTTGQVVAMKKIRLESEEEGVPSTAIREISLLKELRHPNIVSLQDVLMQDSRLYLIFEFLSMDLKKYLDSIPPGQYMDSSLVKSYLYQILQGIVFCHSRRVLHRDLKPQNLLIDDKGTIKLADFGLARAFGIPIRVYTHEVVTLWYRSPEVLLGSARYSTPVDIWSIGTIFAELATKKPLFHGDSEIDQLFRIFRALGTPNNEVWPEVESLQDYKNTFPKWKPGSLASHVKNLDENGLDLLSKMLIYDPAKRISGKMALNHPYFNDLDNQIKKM
T1 sequence (P14635 whole entry partner): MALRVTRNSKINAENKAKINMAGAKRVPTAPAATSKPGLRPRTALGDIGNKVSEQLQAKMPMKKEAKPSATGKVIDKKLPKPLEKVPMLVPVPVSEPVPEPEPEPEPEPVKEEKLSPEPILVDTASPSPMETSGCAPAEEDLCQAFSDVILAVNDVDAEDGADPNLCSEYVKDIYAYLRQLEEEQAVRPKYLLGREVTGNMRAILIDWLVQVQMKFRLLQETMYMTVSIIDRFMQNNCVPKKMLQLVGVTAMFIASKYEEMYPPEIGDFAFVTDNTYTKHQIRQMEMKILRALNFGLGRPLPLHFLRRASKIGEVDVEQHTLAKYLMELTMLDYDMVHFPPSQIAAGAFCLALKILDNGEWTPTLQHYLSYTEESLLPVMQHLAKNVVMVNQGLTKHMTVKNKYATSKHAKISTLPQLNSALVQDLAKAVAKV
Procedure, shortened: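 CDK1/cyclin B (commercial, or CDK1/GST-cyclin B1 from co-infected insect cells) phosphorylated histone H1 with 25 μM [32/33P]ATP at pH 7.4, 30° C for 20 min, 2% DMSO. Product captured on phosphocellulose and read by phosphorimager; apparent Ki from competitive or tight-binding fits, with Km for ATP determined.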

[6] = system: U2-OS; test: Inhibition of cell growth, MTT assay, U2-OS; type: cell-based; details: Homo sapiens, U2OS
Procedure, shortened: as §1

[7] = system: pRb phosphorylation at serine 780 in HCT-116 cells; test: pRb immunoblotting (anti-phospho-Rb (ser780) antibody); type: cell-based, human; details: five micromolar of each compound for 12 hours, western blot, anti-phospho-Rb (Ser 780) antibody
Description: as §2, §3

[8] = system: HCT116; test: Inhibition of cell growth, MTT assay, HCT116; type: cell-based, human; details: Homo sapiens, HCT-116
Procedure, shortened: as §1

[9] = target: T2, CDK2/cyclin A (Homo sapiens, UniProt P24941); test: Inhibition of CDK2/cyclin A retinoblastoma kinase activity; type: biochemical; details: read-out: Ki CDK 2/A
T2 construct: made in house; host or cells: CDK2: insect cells (baculovirus); cyclin A: E. coli, then limited proteolysis
Procedure, shortened: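 Baculovirus-expressed CDK2 with excess proteolyzed cyclin A (or purified complex), 150 nM or 5 nM, phosphorylating an Rb fragment with 25 μM [32/33P]ATP, pH 7.4, 30° C, 20 min. Filter-captured radioactivity by phosphorimager; apparent Ki from fits to competitive or tight-binding competitive inhibition using measured ATP Km.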

[10] = target: T3, complex of human CDK4 and cyclin D3 (Homo sapiens, UniProt P11802); test: Inhibition of CDK4/cyclin D retinoblastoma kinase activity (D-type cyclin is D3); type: biochemical; details: superscript a: D-type cyclin is D3; apparent Ki; read-out: Ki CDK 4/D
T3 construct: made in house; host or cells: insect cells, co-infected with baculovirus
T3 sequence (P11802 whole entry): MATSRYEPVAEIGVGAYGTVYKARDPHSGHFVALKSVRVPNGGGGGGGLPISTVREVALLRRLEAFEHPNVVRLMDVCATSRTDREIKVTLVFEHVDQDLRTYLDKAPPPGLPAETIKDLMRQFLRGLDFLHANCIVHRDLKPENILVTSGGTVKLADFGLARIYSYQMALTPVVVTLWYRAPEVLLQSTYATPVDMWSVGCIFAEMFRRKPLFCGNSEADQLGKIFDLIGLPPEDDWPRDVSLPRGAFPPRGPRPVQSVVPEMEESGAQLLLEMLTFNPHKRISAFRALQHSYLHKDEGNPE
T3 sequence (P30281 whole entry partner): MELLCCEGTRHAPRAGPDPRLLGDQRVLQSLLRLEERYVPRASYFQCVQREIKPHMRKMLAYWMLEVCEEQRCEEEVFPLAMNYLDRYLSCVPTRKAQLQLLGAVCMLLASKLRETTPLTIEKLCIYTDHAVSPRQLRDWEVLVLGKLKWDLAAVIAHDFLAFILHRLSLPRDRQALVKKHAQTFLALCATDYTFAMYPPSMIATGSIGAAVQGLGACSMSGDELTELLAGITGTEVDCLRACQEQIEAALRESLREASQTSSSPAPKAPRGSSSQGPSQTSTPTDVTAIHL
Procedure, shortened: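 Apparent Ki derived by fitting background-corrected activity to competitive (or, for tight binders, competitive tight-binding) equations with measured ATP Km. Rb phosphorylation by radiolabelled ATP was measured at 30°C, 20 min standard or 60 min at 5 nM complex for tight binders, via nitrocellulose capture and phosphorimager.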

[11] = system: COLO-205; test: Inhibition of cell growth, MTT assay, COLO-205; type: cell-based; details: Homo sapiens; COLO-205, MTT assay
Description: as §4

[12] = system: M14 melanoma; test: Inhibition of cell growth, MTT assay, M14 melanoma; type: cell-based; details: Homo sapiens
Description: as §4

[13] = system: RXF-393; test: Inhibition of cell growth, MTT assay, RXF-393; type: cell-based; details: Homo sapiens; RXF-393, MTT assay
Description: as §4

Row | IC50 [3] [nM] | IC90 [3] [nM] | IC50 [4] [nM] | IC90 [4] [nM] | Ki [5] [nM] | IC50 [6] [nM] | IC90 [6] [nM] | IC50 [8] [nM] | IC90 [8] [nM] | Ki [9] [nM] | Ki [10] [nM] | IC50 [11] [nM] | IC90 [11] [nM] | IC50 [12] [nM] | IC90 [12] [nM] | SMILES | IC50 [1] [nM] | IC90 [1] [nM] | Inhibits pRb phosphorylation [2] | Inhibits pRb (ser 780) phosphorylation [7] | IC50 [13] [nM] | other results
1 | 220 | 590 | 3900 | 13000 | 2.2 | 1700 | 2800 | 250 | 560 | 5.7 | 13 | 240 | 580 | 710 | 2200 | Nc1nc(Nc2ccc(S(N)(=O)=O)cc2)sc1C(=O)c1c(F)cccc1F [C(85), 4-[4-Amino-5-(2,6-difluoro-benzoyl)-thiazol-2-ylamino]-benzenesulfonamide] | 280 | 670 | + | + | 1200 | IC90 [13]: 3000 nM
2 |  |  |  |  | 681 | 850 | 1500 | 580 | 1400 | 370 | 8.2 | 200 | 600 | 2400 | 9000 | Cc1ccsc1C(=O)c1sc(Nc2ccc(N3CCNCC3)cc2)nc1N [H(1), [4-Amino-2-(4-piperazin-1-yl-phenylamino)-thiazol-5-yl]-(3-methyl-thiophen-2-yl)-methanone Trihydrochloride] | 730 | 1400 | + | + | 460 | IC90 [13]: 880 nM
3 | 340 | 700 | 480 | 1700 | 405 | 1700 | 2800 | 300 | 730 | 135 | 6.4 | 900 | 2700 | 650 | 2000 | Nc1nc(Nc2ccc(N3CCNCC3)cc2)sc1C(=O)c1c(F)cccc1F [J(2), [4-Amino-2-(4-piperazin-1-yl-phenylamino)-thiazol-5-yl]-(2,6-difluoro-phenyl)-methanone] | 580 | 1300 | + | + | 550 | IC90 [13]: 1100 nM

More lines, now with the values behind:

Row | SMILES | IC50 [3] [nM] | IC90 [3] [nM] | IC50 [4] [nM] | IC90 [4] [nM] | Ki [5] [nM] | IC50 [6] [nM] | IC90 [6] [nM] | IC50 [8] [nM] | IC90 [8] [nM] | Ki [9] [nM] | Ki [10] [nM] | IC50 [11] [nM] | IC90 [11] [nM] | IC50 [12] [nM] | IC90 [12] [nM] | IC50 [1] [nM] | IC90 [1] [nM] | Inhibits pRb phosphorylation [2] | Inhibits pRb (ser 780) phosphorylation [7] | IC50 [13] [nM] | other results
4 | Cc1cc(C(=O)c2sc(Nc3ccc(S(N)(=O)=O)cc3)nc2N)c(C)s1 [C(50), 4-[4-Amino-5-(2,5-dimethyl-thiophene-3-carbonyl)-thiazol-2-ylamino]-benzenesulfonamide] | 480 | 1500 | 3000 | > 25000 | 29 | 2000 | 3000 | 610 | 1600 | 5.6 | 25.5 |  |  |  |  | 1300 | 2800 | + | + |  | % inhibition of growth in parentheses after >25 [4]: (88%)
5 | Cc1ccsc1C(=O)c1sc(Nc2ccc(S(N)(=O)=O)cc2)nc1N [C(48), 4-[4-Amino-5-(3-methyl-thiophene-2-carbonyl)-thiazol-2-ylamino]-benzenesulfonamide] | 260 | 600 | 2600 | > 25000 | 15 | 1000 | 1500 |  | 700 | 11.1 | 14 | 290 | 600 | 600 | 1800 | 420 | 750 | + | + | 800 | % inhibition of growth in parentheses after >25 [4]: (82%); IC90 [13]: 1600 nM
6 | CN1CCN(c2ccc(Nc3nc(N)c(C(=O)c4c(Cl)cc(C(F)(F)F)cc4Cl)s3)cc2)CC1 [C(81)] | 4700 | 9300 | 3900 | 16000 | 1240 | 7900 | 12000 | 10000 | 20000 | 872 | 12.3 | > 5000 |  | 3800 | > 5000 | 13000 | 22000 | + | + | > 5000 | 
7 | Cc1ccsc1C(=O)c1sc(Nc2ccc(N3CCN(C)CC3)cc2)nc1N [C(87), {4-Amino-2-[4-(4-methyl-piperazin-1-yl)-phenylamino]-thiazol-5-yl}-3-methyl-thiophen-2-yl-methanone] |  |  |  |  | 826 | 1800 | 4000 | 950 | 2900 | 607 | 9 | 390 | 1700 | 1500 | 4200 | 2000 | 4000 | + | + | 1500 | IC90 [13]: 2300 nM
